{"source": "patent US20240374598A1", "about": "“INHIBITORS OF HUMAN IMMUNODEFICIENCY VIRUS REPLICATION” (ViiV HEALTHCARE UK (NO.5) LIMITED, priority 2018, published 2024)", "key": {"[1]": {"system": "recombinant NL4-3 virus (nef section replaced with Renilla luciferase gene) in MT-2 cells", "assay": "HIV cell culture assay (antiviral activity, luciferase readout)", "assay_type": "cell-based", "settings": "NL43, MT-2 cells infected for 4-5 days with recombinant NL4-3 Renilla luciferase virus", "protocol": "HIV cell culture assay—MT-2 cells, 293T cells and the proviral DNA clone of NL4-3 virus were obtained from the NIH AIDS Research and Reference Reagent Program. MT-2 cells were propagated in RPMI 1640 media supplemented with 10% heat inactivated fetal bovine serum (FBS), […]. The 293T cells were propagated in DMEM media supplemented with 10% heat inactivated FBS, […]. A recombinant NL4-3 proviral clone, in which a section of the nef gene was replaced with the Renilla luciferase gene, was used to make the reference virus used in these studies. The recombinant virus was prepared through transfection of the recombinant NL4-3 proviral clone into 293T cells using Transit-293 Transfection Reagent from Mirus Bio LLC (Madison, WI). Supernatent was harvested after 2-3 days and the amount of virus present was titered in MT-2 cells using luciferase enzyme activity as a marker by measuring luciferase enzyme activity. Luciferase was quantitated using the EnduRen Live Cell Substrate from Promega (Madison, WI). Antiviral activities of compounds toward the recombinant virus were quantified by measuring luciferase activity in MT-2 cells infected for 4-5 days with the recombinant virus in the presence of serial dilutions of the compound.\nThe 50% effective concentration (EC50) was calculated by using the exponential form of the median effect equation where (Fa)=1/[1+(ED50/drug conc.)m] (Johnson VA, Byington RT. Infectivity Assay. In Techniques in HIV Research. ed. Aldovini A, Walker BD. 71-76. New York: Stockton Press. 1990). The 50% inhibitory concentration (EC50) was calculated by using the exponential form of the median effect equation where percent inhibition=1/[1+(EC50/drug concentration)m], where m is a parameter that reflects the slope of the concentration-response curve."}, "[2]": {"assay": "Compound cytotoxicity, XTT-based colorimetric assay", "assay_type": "cell-based", "settings": "human; uninfected MT2 cells, day 4, XTT assay", "protocol": "Compound cytotoxicity and the corresponding CC50 values were determined using the same protocol as described in the antiviral assay except that uninfected cells were used. Cytotoxicity was assessed on day 4 in uninfected MT2 cells by using a XTT (2,3-bis[2-Methoxy-4-nitro-5-sulfophenyl]-2H-tetrazolium-5-carboxyanilide inner salt)-based colorimetric assay (Sigma-Aldrich, St Louis, Mo)."}}, "data": [{"smiles": "COc1ccc2c(=O)n(-c3ccc(Cl)c4c(NS(C)(=O)=O)nn(C)c34)c([C@H](Cc3cc(F)cc(F)c3)NC(=O)Cn3ccc(C(C)C)n3)nc2n1", "note": "[Example 35, (S)—N-(1-(3-(4-chloro-1-methyl-3-(methylsulfonamido)-1H-indazol-7-yl)-7-methoxy-4-oxo-3,4-dihydropyrido[2,3-d]pyrimidin-2-yl)-2-(3,5-difluorophenyl)ethyl)-2-(3-isopropyl-1H-pyrazol-1-yl)acetamide]", "values": [{"measurement": "EC50", "setting": "[1]", "value": 0.235, "unit": "nM"}, {"measurement": "CC50 at 4 day", "setting": "[2]", "value": "> 1000", "unit": "nM"}]}, {"smiles": "COc1ccc2c(=O)n(-c3ccc(Cl)c4c(NS(C)(=O)=O)nn(C)c34)c([C@H](Cc3cc(F)cc(F)c3)NC(=O)Cn3ccc(C4CCC4)n3)nc2c1", "note": "[Example 7, (S)—N-(1-(3-(4-chloro-1-methyl-3-(methylsulfonamido)-1H-indazol-7-yl)-7-methoxy-4-oxo-3,4-dihydroquinazolin-2-yl)-2-(3,5-difluorophenyl)ethyl)-2-(3-cyclobutyl-1H-pyrazol-1-yl)acetamide]", "values": [{"measurement": "EC50", "setting": "[1]", "value": 0.899, "unit": "nM"}, {"measurement": "CC50 at 4 day", "setting": "[2]", "value": "> 1000", "unit": "nM"}]}, {"smiles": "Cc1ccc2c(=O)n(-c3ccc(Cl)c4c(NS(C)(=O)=O)nn(C)c34)c([C@H](Cc3cc(F)cc(F)c3)NC(=O)Cn3nc(C(F)F)c4c3C(F)(F)[C@@H]3C[C@H]43)nc2c1", "note": "[Example 15, N—((S)-1-(3-(4-chloro-1-methyl-3-(methylsulfonamido)-1H-indazol-7-yl)-7-methyl-4-oxo-3,4-dihydroquinazolin-2-yl)-2-(3,5-difluorophenyl)ethyl)-2-((3bS,4aR)-3-(difluoromethyl)-5,5-difluoro-3b,4,4a,5-tetrahydro-1H-cyclopropa[3,4]cyclopenta[1,2-c]pyrazol-1-yl)acetamide]", "values": [{"measurement": "EC50", "setting": "[1]", "value": 0.071, "unit": "nM"}, {"measurement": "CC50 at 4 day", "setting": "[2]", "value": "> 1000", "unit": "nM"}]}, {"smiles": "Cn1nc(NS(C)(=O)=O)c2c(Cl)ccc(-n3c([C@H](Cc4cc(F)cc(F)c4)NC(=O)Cn4nc(C(F)F)c5c4C(F)(F)[C@@H]4C[C@H]54)nc4cc(OCCCF)ccc4c3=O)c21", "note": "[Example 9, N—((S)-1-(3-(4-chloro-1-methyl-3-(methylsulfonamido)-1H-indazol-7-yl)-7-(3-fluoropropoxy)-4-oxo-3,4-dihydroquinazolin-2-yl)-2-(3,5-difluorophenyl)ethyl)-2-((3bS,4aR)-3-(difluoromethyl)-5,5-difluoro-3b,4,4a,5-tetrahydro-1H-cyclopropa[3,4]cyclopenta[1,2-c]pyrazol-1-yl)acetamide]", "values": [{"measurement": "EC50", "setting": "[1]", "value": 0.049, "unit": "nM"}, {"measurement": "CC50 at 4 day", "setting": "[2]", "value": "> 1000", "unit": "nM"}]}, {"smiles": "Cn1nc(NS(C)(=O)=O)c2c(Cl)ccc(-n3c([C@H](Cc4cc(F)cc(F)c4)NC(=O)Cn4nc(C(F)F)c5c4C(F)(F)[C@@H]4C[C@H]54)nc4cc(C(F)(F)C(C)(C)C)ccc4c3=O)c21", "note": "[Example 29, N—((S)-1-(3-(4-chloro-1-methyl-3-(methylsulfonamido)-1H-indazol-7-yl)-7-(1,1-difluoro-2,2-dimethylpropyl)-4-oxo-3,4-dihydroquinazolin-2-yl)-2-(3,5-difluorophenyl)ethyl)-2-((3bS,4aR)-3-(difluoromethyl)-5,5-difluoro-3b,4,4a,5-tetrahydro-1H-cyclopropa[3,4]cyclopenta[1,2-c]pyrazol-1-yl)acetamide]", "values": [{"measurement": "EC50", "setting": "[1]", "value": 0.115, "unit": "nM"}, {"measurement": "CC50 at 4 day", "setting": "[2]", "value": "> 1000", "unit": "nM"}]}, {"smiles": "Cn1nc(NS(C)(=O)=O)c2c(CCC(F)(F)F)ccc(-n3c([C@H](Cc4cc(F)cc(F)c4)NC(=O)Cn4nc(C(F)F)c5c4C(F)(F)[C@@H]4C[C@H]54)nc4cc(CCC(F)(F)F)ccc4c3=O)c21", "note": "[Example 22, 2-((3bS,4aR)-3-(difluoromethyl)-5,5-difluoro-3b,4,4a,5-tetrahydro-1H-cyclopropa[3,4]cyclopenta[1,2-c]pyrazol-1-yl)-N—((S)-2-(3,5-difluorophenyl)-1-(3-(1-methyl-3-(methylsulfonamido)-4-(3,3,3-trifluoropropyl)-1H-indazol-7-yl)-4-oxo-7-(3,3,3-trifluoropropyl)-3,4-dihydroquinazolin-2-yl)ethyl)acetamide]", "values": [{"measurement": "EC50", "setting": "[1]", "value": 0.573, "unit": "nM"}, {"measurement": "CC50 at 4 day", "setting": "[2]", "value": "> 1000", "unit": "nM"}]}, {"smiles": "O=C(Cn1nc(C(F)F)c2c1C(F)(F)[C@@H]1C[C@H]21)N[C@@H](Cc1cc(F)cc(F)c1)c1nc2cc(C3CC3)ccc2c(=O)n1-c1ccc(Cl)c2c(NS(=O)(=O)C3CC3)nn(CC(F)F)c12", "note": "[Example 31, N—((S)-1-(3-(4-chloro-3-(cyclopropanesulfonamido)-1-(2,2-difluoroethyl)-1H-indazol-7-yl)-7-cyclopropyl-4-oxo-3,4-dihydroquinazolin-2-yl)-2-(3,5-difluorophenyl)ethyl)-2-((3bS,4aR)-3-(difluoromethyl)-5,5-difluoro-3b,4,4a,5-tetrahydro-1H-cyclopropa[3,4]cyclopenta[1,2-c]pyrazol-1-yl)acetamide]", "values": [{"measurement": "EC50", "setting": "[1]", "value": 0.046, "unit": "nM"}, {"measurement": "CC50 at 4 day", "setting": "[2]", "value": "> 1000", "unit": "nM"}]}, {"smiles": "Cn1nc(NS(C)(=O)=O)c2cccc(-n3c([C@H](Cc4cc(F)cc(F)c4)NC(=O)Cn4nc(C(F)F)c5c4C(F)(F)[C@@H]4C[C@H]54)nc4cc(C5CCCC5)ccc4c3=O)c21", "note": "[Example 33, N—((S)-1-(7-cyclopentyl-3-(1-methyl-3-(methylsulfonamido)-1H-indazol-7-yl)-4-oxo-3,4-dihydroquinazolin-2-yl)-2-(3,5-difluorophenyl)ethyl)-2-((3bS,4aR)-3-(difluoromethyl)-5,5-difluoro-3b,4,4a,5-tetrahydro-1H-cyclopropa[3,4]cyclopenta[1,2-c]pyrazol-1-yl)acetamide]", "values": [{"measurement": "EC50", "setting": "[1]", "value": 1.26, "unit": "nM"}, {"measurement": "CC50 at 4 day", "setting": "[2]", "value": "> 1000", "unit": "nM"}]}, {"smiles": "COc1ccc2c(=O)n(-c3ccc(Cl)c4c(NS(C)(=O)=O)nn(C)c34)c([C@H](Cc3cc(F)cc(F)c3)NC(=O)Cn3ccc(C4CC4)n3)nc2c1", "note": "[Example 6, (S)—N-(1-(3-(4-chloro-1-methyl-3-(methylsulfonamido)-1H-indazol-7-yl)-7-methoxy-4-oxo-3,4-dihydroquinazolin-2-yl)-2-(3,5-difluorophenyl)ethyl)-2-(3-cyclopropyl-1H-pyrazol-1-yl)acetamide]", "values": [{"measurement": "EC50", "setting": "[1]", "value": 0.347, "unit": "nM"}, {"measurement": "CC50 at 4 day", "setting": "[2]", "value": "> 1000", "unit": "nM"}]}, {"smiles": "COc1ccc2c(=O)n(-c3ccc(Cl)c4c(NS(C)(=O)=O)nn(C)c34)c([C@H](Cc3cc(F)cc(F)c3)NC(=O)Cn3ccc(C(C)C)n3)nc2c1", "note": "[Example 5, (S)—N-(1-(3-(4-chloro-1-methyl-3-(methylsulfonamido)-1H-indazol-7-yl)-7-methoxy-4-oxo-3,4-dihydroquinazolin-2-yl)-2-(3,5-difluorophenyl)ethyl)-2-(3-isopropyl-1H-pyrazol-1-yl)acetamide]", "values": [{"measurement": "EC50", "setting": "[1]", "value": 0.758, "unit": "nM"}, {"measurement": "CC50 at 4 day", "setting": "[2]", "value": "> 1000", "unit": "nM"}]}, {"smiles": "O=C(Cn1nc(C(F)F)c2c1C(F)(F)[C@@H]1C[C@H]21)N[C@@H](Cc1cc(F)cc(F)c1)c1nc2cc(CCC(F)(F)F)ccc2c(=O)n1-c1ccc(Cl)c2c(NS(=O)(=O)C3CC3)nn(CC(F)F)c12", "note": "[Example 24, N—((S)-1-(3-(4-chloro-3-(cyclopropanesulfonamido)-1-(2,2-difluoroethyl)-1H-indazol-7-yl)-4-oxo-7-(3,3,3-trifluoropropyl)-3,4-dihydroquinazolin-2-yl)-2-(3,5-difluorophenyl)ethyl)-2-((3bS,4aR)-3-(difluoromethyl)-5,5-difluoro-3b,4,4a,5-tetrahydro-1H-cyclopropa[3,4]cyclopenta[1,2-c]pyrazol-1-yl)acetamide]", "values": [{"measurement": "EC50", "setting": "[1]", "value": 0.155, "unit": "nM"}, {"measurement": "CC50 at 4 day", "setting": "[2]", "value": "> 1000", "unit": "nM"}]}, {"smiles": "CC(C)[C@H](C)Oc1ccc2c(=O)n(-c3ccc(Cl)c4c(NS(C)(=O)=O)nn(C)c34)c([C@H](Cc3cc(F)cc(F)c3)NC(=O)Cn3nc(C(F)F)c4c3C(F)(F)[C@@H]3C[C@H]43)nc2c1", "note": "[Example 13, N—((S)-1-(3-(4-chloro-1-methyl-3-(methylsulfonamido)-1H-indazol-7-yl)-7-(((S)-3-methylbutan-2-yl)oxy)-4-oxo-3,4-dihydroquinazolin-2-yl)-2-(3,5-difluorophenyl)ethyl)-2-((3bS,4aR)-3-(difluoromethyl)-5,5-difluoro-3b,4,4a,5-tetrahydro-1H-cyclopropa[3,4]cyclopenta[1,2-c]pyrazol-1-yl)acetamide]", "values": [{"measurement": "EC50", "setting": "[1]", "value": 0.239, "unit": "nM"}, {"measurement": "CC50 at 4 day", "setting": "[2]", "value": "> 1000", "unit": "nM"}]}, {"smiles": "CCC(F)(F)c1ccc2c(=O)n(-c3ccc(Cl)c4c(NS(C)(=O)=O)nn(C)c34)c([C@H](Cc3cc(F)cc(F)c3)NC(=O)Cn3nc(C(F)F)c4c3C(F)(F)[C@@H]3C[C@H]43)nc2c1", "note": "[Example 20, N—((S)-1-(3-(4-chloro-1-methyl-3-(methylsulfonamido)-1H-indazol-7-yl)-7-(1,1-difluoropropyl)-4-oxo-3,4-dihydroquinazolin-2-yl)-2-(3,5-difluorophenyl)ethyl)-2-((3bS,4aR)-3-(difluoromethyl)-5,5-difluoro-3b,4,4a,5-tetrahydro-1H-cyclopropa[3,4]cyclopenta[1,2-c]pyrazol-1-yl)acetamide]", "values": [{"measurement": "EC50", "setting": "[1]", "value": 0.122, "unit": "nM"}, {"measurement": "CC50 at 4 day", "setting": "[2]", "value": "> 1000", "unit": "nM"}]}]}
